From patent US20090325959A1 (priority 2008, published 2009)
Where two headings read alike, the source gives them in different places.

Legend:
Akt3 human enzyme = target: T1, Akt3 human enzyme (Homo sapiens, UniProt Q9Y243); assay: Akt3 inhibition assay (IMAP FP); type: biochemical;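 further: kinase reaction run 60 min at room temperature after 30 µM ATP start, phosphorylated substrate captured on IMAP beads and read as fluorescence polarization (mP)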
T1 construct: purchased Upstate Chemicon 14-502
T1 sequence (Q9Y243 whole entry): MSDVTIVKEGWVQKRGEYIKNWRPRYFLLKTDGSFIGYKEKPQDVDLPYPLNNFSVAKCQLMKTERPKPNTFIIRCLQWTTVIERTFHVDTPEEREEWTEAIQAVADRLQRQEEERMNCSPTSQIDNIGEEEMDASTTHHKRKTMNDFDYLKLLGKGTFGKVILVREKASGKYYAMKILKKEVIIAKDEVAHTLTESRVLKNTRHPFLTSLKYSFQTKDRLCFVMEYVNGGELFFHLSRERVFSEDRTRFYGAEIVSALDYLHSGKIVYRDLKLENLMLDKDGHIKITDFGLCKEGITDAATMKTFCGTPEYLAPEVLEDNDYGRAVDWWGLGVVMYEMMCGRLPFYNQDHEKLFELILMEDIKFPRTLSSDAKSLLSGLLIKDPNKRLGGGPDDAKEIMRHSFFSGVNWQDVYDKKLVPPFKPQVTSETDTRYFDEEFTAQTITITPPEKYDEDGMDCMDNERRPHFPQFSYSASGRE
Protocol: (§1) Inhibition of Akt3 and p70S6K activity was determined using the IMAP™ FP Progressive Binding Kit (Molecular Devices product number R8127). […] Following the pre-incubation, 30 μM ATP was added to initiate the reaction. After 60 minutes at RT, Molecular Devices IMAP™ binding solution was added to bind phosphorylated substrate. After 30 minutes of incubation in the presence of the IMAP™ beads the fluorescence polarization was read and the ratio was reported as mP. IC50 results were calculated using the Prism software from Graphpad. The Ki values were determined according to the following formula: Ki=IC50/(1+([ATP Challenge]/EC50 ATP)).

[1] = system: A-10 rat thoracic aorta cells; assay: PDGF-stimulated smooth muscle cell proliferation assay (BrdU incorporation); type: cell-based; settings: A-10 cells, 10 ng/mL PDGF, BrdU incorporation, percent of total challenge-stimulated proliferation; for Percent of PDGF Induced Proliferation at 1 μM Avg: 1 μM test compound; for Percent of PDGF Induced Proliferation at 10 μM Avg: 10 μM test compound;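 on all read-outs here: cells kept in serum-free medium, BrdU allowed to incorporate for 24 h, then incorporated label detected fluorometrically with an anti-BrdU antibody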
ROCK1 = target: T2, ROCK1 (Homo sapiens, UniProt Q13464); assay: Rho kinase inhibition assay (IMAP fluorescence polarization), ROCK1; type: biochemical;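 further: kinase reaction run 60 min at room temperature, then phosphorylated substrate captured on IMAP beads for 30 min, with fluorescence polarization read in mP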
T2 construct: purchased Upstate/Chemicon 14-601
T2 sequence (Q13464 17-535 limits assumed): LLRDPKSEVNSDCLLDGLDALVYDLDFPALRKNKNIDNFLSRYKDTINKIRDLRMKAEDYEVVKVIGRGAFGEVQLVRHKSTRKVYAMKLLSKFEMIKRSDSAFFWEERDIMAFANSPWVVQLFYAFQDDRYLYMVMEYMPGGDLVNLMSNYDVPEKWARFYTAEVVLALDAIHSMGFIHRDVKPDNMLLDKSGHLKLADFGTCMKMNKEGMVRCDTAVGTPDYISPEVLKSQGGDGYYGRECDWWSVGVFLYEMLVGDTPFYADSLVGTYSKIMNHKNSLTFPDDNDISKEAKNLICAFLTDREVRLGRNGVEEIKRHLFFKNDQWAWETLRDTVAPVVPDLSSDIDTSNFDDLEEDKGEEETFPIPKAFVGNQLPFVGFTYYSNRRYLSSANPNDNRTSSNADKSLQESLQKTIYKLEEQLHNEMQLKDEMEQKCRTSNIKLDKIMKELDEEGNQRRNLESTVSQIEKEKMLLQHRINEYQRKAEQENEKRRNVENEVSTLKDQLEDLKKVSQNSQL
Protocol: (§2) Following the pre-incubation, 10 μM ATP was added to initiate the reaction. After 60 minutes at room temperature, Molecular Devices IMAP™ binding solution was added to bind phosphorylated substrate. After 30 minutes of incubation in the presence of the IMAP™ beads, the fluorescence polarization was read and the ratio was reported as mP. IC50 values for compounds and EC50 values for ATP were calculated using the Prism software from Graphpad.

[2] = Compound plasma concentrations in unsensitized mice at 15 min post administration; type: in vivo; settings: mouse, 15 μmol/kg; mean compound plasma concentration in mice at 15 minutes post oral administration; read-out: Mouse Oral PK
p70S6K human enzyme = target: T3, p70S6K human enzyme (Homo sapiens, UniProt P23443, T412E); assay: p70S6K inhibition assay (IMAP FP); type: biochemical;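 further: kinase reaction run at room temperature, phosphorylated substrate captured on IMAP beads and read as fluorescence polarization in mP, IC50 then converted to Ki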
T3 construct: purchased Upstate Chemicon 14-486
T3 sequence (P23443 1-421 T412E limits assumed): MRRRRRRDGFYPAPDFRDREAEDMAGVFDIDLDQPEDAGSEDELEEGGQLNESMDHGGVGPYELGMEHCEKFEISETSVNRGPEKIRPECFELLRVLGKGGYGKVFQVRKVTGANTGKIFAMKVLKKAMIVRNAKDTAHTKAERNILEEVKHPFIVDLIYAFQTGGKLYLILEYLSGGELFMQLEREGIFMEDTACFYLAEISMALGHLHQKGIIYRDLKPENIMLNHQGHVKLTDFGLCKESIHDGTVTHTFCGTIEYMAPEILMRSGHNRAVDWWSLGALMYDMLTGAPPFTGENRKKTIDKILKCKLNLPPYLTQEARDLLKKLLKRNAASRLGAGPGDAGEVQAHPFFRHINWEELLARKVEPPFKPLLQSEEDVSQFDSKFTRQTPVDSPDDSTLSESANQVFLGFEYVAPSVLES
Protocol: as §1

ROCK2 = target: T4, ROCK2 (Homo sapiens, UniProt O75116); assay: Rho kinase inhibition assay (IMAP fluorescence polarization), ROCK2; type: biochemical;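 further: kinase reaction started with 10 µM ATP and run 60 min at room temperature, then phosphorylated substrate captured on IMAP beads for 30 min and fluorescence polarization read in mP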
T4 construct: purchased Upstate/Chemicon 14-451
T4 sequence (O75116 11-552 limits assumed): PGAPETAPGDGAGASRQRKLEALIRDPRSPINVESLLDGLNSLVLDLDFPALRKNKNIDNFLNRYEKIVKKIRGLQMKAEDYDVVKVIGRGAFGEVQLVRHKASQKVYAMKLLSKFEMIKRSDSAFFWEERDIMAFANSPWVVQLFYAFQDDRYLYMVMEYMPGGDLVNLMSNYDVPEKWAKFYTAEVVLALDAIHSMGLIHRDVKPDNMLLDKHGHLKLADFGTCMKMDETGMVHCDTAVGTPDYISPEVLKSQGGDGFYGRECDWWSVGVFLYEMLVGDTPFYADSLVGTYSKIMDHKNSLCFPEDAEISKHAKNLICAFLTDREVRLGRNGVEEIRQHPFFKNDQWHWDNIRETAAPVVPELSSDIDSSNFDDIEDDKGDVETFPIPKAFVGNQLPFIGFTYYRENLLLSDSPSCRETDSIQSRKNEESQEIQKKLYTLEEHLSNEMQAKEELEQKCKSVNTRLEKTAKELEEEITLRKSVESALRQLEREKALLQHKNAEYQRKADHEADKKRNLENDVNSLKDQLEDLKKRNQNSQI
Protocol: as §2

[3] = 30 μM ATP, Ki=IC50/(1+([ATP Challenge]/EC50 ATP)), read-out: Akt3 Ki, Avg
[4] = 30 μM ATP, Ki=IC50/(1+([ATP Challenge]/EC50 ATP)), read-out: p70S6K Ki, Avg
[5] = average Ki, read-out: p70S6K Ki
[6] = 10 μM ATP, read-out: ROCK2 Ki, Avg

Structure (SMILES)	Ki (Akt3 human enzyme; [3])	Ki (Akt3 human enzyme; average Ki, read-out: Akt3 Ki)	Percent of PDGF Induced Proliferation at 1 μM Avg [1]	Percent of PDGF Induced Proliferation at 10 μM Avg [1]	Ki (ROCK1; Avg, 10 μM ATP)	Ki (ROCK1; average Ki)	concentration at 15 min [2]	Ki (p70S6K human enzyme; [4])	Ki (p70S6K human enzyme; [5])	Ki (ROCK2; [6])	Ki (ROCK2; average Ki, read-out: ROCK2 Ki)
C#Cc1ccc(CN2CCC[C@@H](Nc3ccc4[nH]ncc4c3)C2)cc1 [Compound 1.076, (R)-N-(1-(4-ethynylbenzyl)piperidin-3-yl)-1H-indazol-5-amine]	241 nM	241 nM	84.0%	53.7%	14.3 nM	14.3 nM	1720 nM	414 nM	414 nM	2.6 nM	2.6 nM
Clc1ccc(CN2CCC[C@@H](Nc3ccc4[nH]ncc4c3)C2)cc1 [Compound 1.132, (R)-N-(1-(4-chlorobenzyl)piperidin-3-yl)-1H-indazol-5-amine]	81.8 nM	81.8 nM	48.9%	30.3%	22.5 nM	22.5 nM	982 nM	515 nM	515 nM	3.5 nM	3.5 nM
c1cc2ccc(CN3CCC[C@H](Nc4ccc5[nH]ncc5c4)C3)cc2[nH]1 [Compound 1.148, (S)-N-(1-((1H-indol-6-yl)methyl)piperidin-3-yl)-1H-indazol-5-amine]	1130 nM	1130 nM	56.9%	63.5%	24.3 nM	24.3 nM	767 nM	436 nM	436 nM	3.6 nM	3.6 nM
Cc1ccc(CN2CCC[C@H](Nc3ccc4[nH]ncc4c3)C2)cc1O [Compound 1.151, (S)-5-((3-(1H-indazol-5-ylamino)piperidin-1-yl)methyl)2-methylphenol]	709 nM	–	51.0%	63.8%	22.8 nM	–	–	531 nM	–	2.9 nM	–
NC(=O)Cn1ccc2cc(CN3CCC[C@H](Nc4ccc5[nH]ncc5c4)C3)ccc21 [Compound 1.165, (S)-2-(5-((3-(1H-indazol-5-ylamino)piperidin-1-yl)methyl)-1H-indol-1-yl)acetamide]	4140 nM	4140 nM	74.8%	57.9%	50.7 nM	50.7 nM	94 nM	1630 nM	1630 nM	3.4 nM	3.4 nM
FC(F)(F)c1ccc(CN2CCC[C@H](Nc3ccc4[nH]ncc4c3)C2)cc1 [Compound 1.167, (S)-N-(1-(4-(trifluoromethyl)benzyl)piperidin-3-yl)-1H-indazol-5-amine]	8250 nM	–	78.8%	52.7%	119 nM	–	–	1070 nM	–	18.5 nM	–
Cc1ccc(CN2CCC[C@@H](Nc3ccc4[nH]ncc4c3)C2)cc1O [Compound 1.173, (R)-5-((3-(1H-indazol-5-ylamino)piperidin-1-yl)methyl)-2-methylphenol]	157 nM	157 nM	55.4%	35.8%	15.1 nM	15.1 nM	144 nM	340 nM	340 nM	3.6 nM	3.6 nM
c1cc2cc(CN3CCC[C@H](Nc4ccc5[nH]ncc5c4)C3)ccc2s1 [Compound 1.175, (S)-N-(1-(benzo[b]thiophen-5-ylmethyl)piperidin-3-yl)-1H-indazol-5-amine]	2820 nM	2820 nM	58.2%	49.0%	65.9 nM	65.9 nM	1130 nM	853 nM	853 nM	7.6 nM	7.6 nM
CC(C)c1ccc(CN2CCC[C@H](Nc3ccc4[nH]ncc4c3)C2)cc1 [Compound 1.180, (S)-N-(1-(4-isopropylbenzyl)piperidin-3-yl)-1H-indazol-5-amine]	12000 nM	–	92.4%	64.8%	138 nM	–	–	1030 nM	–	23.1 nM	–
CC(=O)NCc1cccc(CN2CCC[C@H](Nc3ccc4[nH]ncc4c3)C2)c1 [Compound 1.197]	64100 nM	64100 nM	52.5%	48.9%	120 nM	120 nM	453 nM	8690 nM	8690 nM	5 nM	5 nM
CC(C)c1ccc(CN2CCC[C@@H](Nc3ccc4[nH]ncc4c3)C2)cc1 [Compound 1.204, (R)-N-(1-(4-isopropylbenzyl)piperidin-3-yl)-1H-indazol-5-amine]	1910 nM	–	79.3%	42.8%	196 nM	–	–	927 nM	–	31.9 nM	–
c1cc(C2CC2)ccc1CN1CCC[C@@H](Nc2ccc3[nH]ncc3c2)C1 [Compound 1.206, (R)-N-(1-(4-cyclopropylbenzyl)piperidin-3-yl)-1H-indazol-5-amine]	529 nM	529 nM	77.5%	51.1%	64.4 nM	64.4 nM	672 nM	314 nM	314 nM	9.1 nM	9.1 nM
CS(=O)(=O)Nc1cc(CN2CCC[C@H](Nc3ccc4[nH]ncc4c3)C2)ccc1Cl [Compound 1.213, (S)-N-(5-((3-(1H-indazol-5-ylamino)piperidin-1-yl)methyl)-2-chlorophenyl)methanesulfonamide]	3210 nM	3210 nM	70.1%	52.3%	106 nM	106 nM	396 nM	2100 nM	2100 nM	3 nM	3 nM
NS(=O)(=O)c1cccc(CN2CCC[C@@H](Nc3ccc4[nH]ncc4c3)C2)c1 [Compound 1.249, (R)-3-((3-(1H-indazol-5-ylamino)piperidin-1-yl)methyl)benzenesulfonamide]	1600 nM	1600 nM	–	–	91.7 nM	91.7 nM	2150 nM	937 nM	937 nM	8.6 nM	8.6 nM
c1ccc2c(CN3CCC[C@@H](Nc4ccc5[nH]ncc5c4)C3)c[nH]c2c1 [Compound 1.252, (R)-N-(1-((1H-indol-3-yl)methyl)piperidin-3-yl)-1H-indazol-5-amine]	205 nM	205 nM	–	–	30.5 nM	30.5 nM	1260 nM	171 nM	171 nM	4.5 nM	4.5 nM
CSc1ccc(CN2CCCC(Nc3cccc4cnccc34)C2)cc1 (stereo not shown) [Compound 2.009, N-(1-(4-(methylthio)benzyl)piperidin-3-yl)isoquinolin-5-amine]	3730 nM	–	128.9%	56.5%	–	–	–	1280 nM	–	–	–
c1cc(N[C@@H]2CCN(Cc3ccc(C4CC4)cc3)C2)c2ccncc2c1 [Compound 2.022, (R)-N-(1-(4-cyclopropylbenzyl)pyrrolidin-3-yl)isoquinolin-5-amine]	4120 nM	–	89.7%	39.4%	44.8 nM	–	–	501 nM	–	15.3 nM	–
Clc1ccc(CN2CC[C@@H](Nc3cccc4cnccc34)C2)cc1 [Compound 2.027, (R)-N-(1-(4-chlorobenzyl)pyrrolidin-3-yl)isoquinolin-5-amine]	658 nM	–	79.4%	64.4%	15.7 nM	–	–	509 nM	–	7.4 nM	–
c1cc(N[C@@H]2CCN(Cc3ccc4occc4c3)C2)c2ccncc2c1 [Compound 2.055, (R)-N-(1-(benzofuran-5-ylmethyl)pyrrolidin-3-yl)isoquinolin-5-amine]	978 nM	978 nM	–	–	16 nM	16 nM	656 nM	312 nM	312 nM	6.4 nM	6.4 nM
OCCn1ccc2ccc(CN3CC[C@@H](Nc4cccc5cnccc45)C3)cc21 [Compound 2.060, (R)-2-(6-((3-(isoquinolin-5-ylamino)pyrrolidin-1-yl)methyl)-1H-indol-1-yl)ethanol]	329 nM	329 nM	–	–	4.9 nM	4.9 nM	308 nM	181 nM	181 nM	3.2 nM	3.2 nM
